Where two headings read alike, the source gives them in different places.
Tests used:
OVCAR-3 xenografts = assay: 28 day in vivo efficacy in OVCAR-3 xenografts; parameters: species or system female NOD SCID mice; conditions: 10 and 30 mg/kg QD, 28 days
Method: Experiments were performed in female NOD SCID mice (GenPharmatech Co.). Animals were allowed to acclimate for 7 days before the study. The general health of the animals were evaluated by a veterinarian, and complete health checks were performed prior to the study. General procedures for animal care and housing were in accordance with the standard, Commission on Life Sciences, National Research Council, Standard Operating Procedures (SOPs) of Pharmaron, Inc. The mice were kept in laminar flow rooms at constant temperature and humidity with 3-5 mice in each cage. Animals were housed in polycarbonate cages which had dimensions of 300×180×150 mm^3 and in an environmentally monitored, well-ventilated room maintained at a temperature of 23±3° C. and a relative humidity of 40%-70%. Fluorescent lighting provided illumination approximately 12 hours per day. […]
The OVCAR-3 (ATCC) tumor cell lines were maintained in vitro as a monolayer in RPMI 1640 medium supplemented with 20% heat inactivated FBS, at 37° C. in an atmosphere of 5% CO2 in air. The tumor cells were sub-cultured, not exceeding 4-5 passages, and cells growing in an exponential growth phase were harvested and counted for tumor inoculation. […]
The measurement of tumor size was conducted with a caliper and recorded twice per week. […]

[1] = In vivo pharmacokinetic evaluation in mouse; parameters: species or system female balb/c nude mice; conditions: female, balb/c nude, plasma, 3 mg/kg IV
KIF18A = target: T1, KIF18A (Homo sapiens, UniProt Q8NI77); assay: KIF18A Biochemical Assay (ATPase, ADP-Glo)
T1 construct: A solution of KIF18A (0.4 nM, 5 μL/well; 1-367) in assay buffer
T1 sequence (Q8NI77 1-367): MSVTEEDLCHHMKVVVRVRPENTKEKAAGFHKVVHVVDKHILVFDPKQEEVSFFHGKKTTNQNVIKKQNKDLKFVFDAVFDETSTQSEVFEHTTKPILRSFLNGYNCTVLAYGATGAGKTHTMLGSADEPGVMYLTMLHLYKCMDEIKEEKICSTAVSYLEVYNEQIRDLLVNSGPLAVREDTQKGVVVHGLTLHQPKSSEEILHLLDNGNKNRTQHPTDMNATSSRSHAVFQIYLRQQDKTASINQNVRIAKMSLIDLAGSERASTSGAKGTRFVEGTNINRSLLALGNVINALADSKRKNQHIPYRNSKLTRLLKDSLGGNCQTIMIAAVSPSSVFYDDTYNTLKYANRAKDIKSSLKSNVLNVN

[2] = Caco-2 permeation assay (bidirectional permeability); assay type: in vitro ADME; conditions: human, Caco-2, pH 7.4
Method: Samples were analyzed through LC/MS/MS for estimating the apparent permeability coefficients (Papp) of compounds across Caco-2 cell monolayers. Caco-2 cells (American Type Culture Collection) were incubated and seeded onto HTS Transwell-96 Well Permeable Supports (Corning Corporation) for 14 days using a cell medium consisting of Dulbecco's Modified Eagle's Medium (DMEM) with high glucose and L-glutamine supplemented with 10% FBS, 1× penicillin-streptomycin mixture and 1×non-essential amino acids (NEAA). Cell monolayer integrity was measured using an automated tissue resistance measuring system (World Precision Instruments). Stock solutions of compounds and control compounds in DMSO were diluted with HBSS (10 mM HEPES, pH 7.4) to reach a final concentration of 5 μM with a final concentration of DMSO<0.1%. HBSS was then removed after 30 minutes of preincubation, and 75 μL of test compound was added to the apical compartment of the Transwell insert. The basolateral compartment was filled with 235 μL of HBSS (10 mM HEPES, pH 7.4) containing 2% BSA. Rate of drug transport in the basolateral to apical direction was obtained by adding 235 μL of test compound to the receiver plate wells (basolateral compartment) and filling with 75 μL of HBSS (10 mM HEPES, pH 7.4) containing 2% BSA. Time 0 samples were prepared by transferring 25 μL of […] working solution to wells of the 96-deepwell plate containing 25 μL HBSS (10 mM HEPES and 2% BSA, pH 7.4), followed by the addition 200 μL of cold methanol containing appropriate internal standards (100 nM alprazolam, 200 nM labetalol, 200 nM caffeine and 200 nM diclofenac). After incubating at 37° C. for 2 h, 25 μL samples from donor sides (apical compartment) were transferred to a 96-well plate containing 25 μL HBSS (10 mM HEPES and 2% BSA, pH 7.4). 25 μL samples from receiver sides (basolateral compartment) were removed and transferred to a new plate containing 25 μL HBSS (10 mM HEPES, pH 7.4). 200 μL of cold methanol containing internal standards (100 nM alprazolam, 200 nM labetalol, 200 nM caffeine and 200 nM diclofenac) was added to terminate the reaction. Samples were vortexed for 5 minutes and then centrifuged at 3,220 g for 40 minutes. An aliquot of 100 μL of the supernatant is mixed with 100 μL of ultra-pure water for LC-MS/MS analysis. All incubations are performed in duplicate. Solutions were discarded from the transwell plate. 100 μL Lucifer Yellow solution ([…] in HBSS) was added to each well of transwell insert and 300 μL of HBSS to each well of receiver. After incubating at 37° C. for 30 minutes, 80 μL was aliquoted from each well of apical and basolateral sides to a solid black plate. The plate was then read with Tecan Infinite™ M 200 (Excitation/Emission wavelength […]).
All calculations were carried out using Microsoft Excel. Peak areas were determined from extracted ion chromatograms. The leakage of Lucifer Yellow, in unit of percentage (%), can be calculated using the following equation: […]
LY leakage of <1% is acceptable to indicate the well-qualified Caco-2 monolayers. The apparent permeability coefficient (Papp), in units of centimeter per second, can be calculated for Caco-2 drug transport assays using the following equation: […]
Where VA is the volume (in mL) in the receiver well (0.235 mL for Ap→Bl flux and 0.075 mL for Bl→Ap flux), Area is the surface area of the membrane (0.143 cm^2 for HTS Transwell-96 Well Permeable Supports), and time is the total transport time in seconds. The efflux ratio can be determined using the following equation: […]
Where Papp (B-A) indicates the apparent permeability coefficient in basolateral to apical direction, and Papp (A-B) indicates the apparent permeability coefficient in apical to basolateral direction.
The recovery can be determined using the following equation: […]

OVCAR-3 cells = assay: In vitro anti-proliferative activity assay in cancer cell line OVCAR-3 (CTG); assay type: cell-based; conditions: 7-day assay, read-out: OVCAR-3 cellular antiproliferation assay IC50

Row | IC50 (KIF18A) | efflux ratio at 2 h, 5 μM [2] | IC50 (OVCAR-3 cells; Homo sapiens, OVCAR-3, 168 h) | SMILES | clearance [1] | other results
1 | < 100 nM |  |  | Cc1cc(NC(=O)c2c(F)cc(NS(=O)(=O)CCO)cc2N2CC[C@@]3(C)C[C@H]3C2)nc(N2CCC(F)(F)CC2)n1 (single isomer, unassigned) [Example 31b] |  | 
2 | < 100 nM |  | 100 to 500 nM | Cc1cc(NC(=O)c2ccc(NS(=O)(=O)CCO)cc2N2CC[C@@]3(C(F)(F)F)C[C@H]3C2)nc(N2CCC(F)(F)CC2)n1 [Example 85] |  | 
3 | < 100 nM | < 10 | 100 to 500 nM | Cc1cc(NC(=O)c2ccc(NS(=O)(=O)CCO)cc2N2CC[C@]3(C(F)(F)F)C[C@@H]3C2)nc(N2CCC(F)(F)CC2)n1 [Example 86] |  | 

Continued, compound first:

Row | SMILES | IC50 (KIF18A) | efflux ratio at 2 h, 5 μM [2] | IC50 (OVCAR-3 cells; Homo sapiens, OVCAR-3, 168 h) | clearance [1] | other results
4 | Cc1cc(NC(=O)c2ccc(NS(=O)(=O)CCO)cc2N2CC[C@@]3(C(F)F)C[C@H]3C2)nc(N2CCC(F)(F)CC2)n1 (single isomer, unassigned) [Example 29b] |  |  |  | 3.3 mL/min/kg | Tumor growth (OVCAR-3 xenografts): significant reduction in tumor growth in a dose-dependent manner
5 | Cc1cc(NC(=O)c2ccc(NS(=O)(=O)CCO)cc2N2CC[C@@]3(F)CC[C@H]3C2)nc(N2CCC(F)(F)CC2)n1 (single isomer, unassigned) [Example 50b] |  |  |  | 0.74 mL/min/kg | 
6 | Cc1cc(NC(=O)c2ccc(NS(=O)(=O)CCO)cc2N2CC[Si](C)(C)CC2)nc(C2CCC(F)(F)CC2)n1 [Example 1, N-(2-(4,4-difluorocyclohexyl)-6-methylpyrimidin-4-yl)-2-(4,4-dimethyl-1,4-azasilinan-1-yl)-4-((2-hydroxyethyl)sulfonamido)benzamide] |  |  |  | 3.6 mL/min/kg | 
7 | Cc1cc(NC(=O)c2ccc(NS(=O)(=O)CCO)cc2N2CC[Si](C)(C)CC2)nc(N2CCC(F)(F)CC2)n1 [Example 9, N-[2-(4,4-difluoropiperidin-1-yl)-6-methylpyrimidin-4-yl]-2-(4,4-dimethyl-1,4-azasilinan-1-yl)-4-(2-hydroxyethanesulfonamido)benzamide] |  |  |  | 1.7 mL/min/kg | 
8 | C[Si]1(C)CCN(c2cc(NS(=O)(=O)CCO)ccc2C(=O)Nc2ccnc(OCCC(F)(F)F)n2)CC1 [Example 10] |  | < 10 |  |  | 
9 | Cc1cc(NC(=O)c2ccc(NS(=O)(=O)CCO)cc2N2CC[C@]3(C)C[C@@H]3C2)nc(C2CCC(F)(F)CC2)n1 [Example 62] | < 100 nM | < 10 | < 100 nM |  | 
10 | Cc1cc(NC(=O)c2ccc(NS(=O)(=O)CCO)cc2N2CC[C@@]3(C)C[C@H]3C2)nc(C2CCC(F)(F)CC2)n1 [Example 63] | < 100 nM |  | < 100 nM |  | 
11 | O=C(Nc1ccnc(N2CCC(F)(F)CC2)n1)c1c(F)cc(NS(=O)(=O)CCO)cc1N1CC[C@@]2(C(F)F)C[C@H]2C1 [Example 84] |  | < 10 |  |  | IC50 (OVCAR-3 cells): 100 to 500 nM
12 | Cc1cc(NC(=O)c2ccc(NS(=O)(=O)NCCO)cc2N2CC[Si](C)(C)CC2)nc(C2CCC(F)(F)CC2)n1 [Example 117] | 100 to 500 nM | < 10 | 100 to 500 nM |  | 
13 | Cc1cc(NC(=O)c2ccc(NS(=O)(=O)N(C)CCO)cc2N2CC[Si](C)(C)CC2)nc(C2CCC(F)(F)CC2)n1 [Example 134] | < 100 nM | < 10 | 100 to 500 nM |  | 

From patent US20260062430A1, “INHIBITORS OF KIF18A AND USES THEREOF” (ACCENT THERAPEUTICS, INC., priority 2022, published 2026)
